{"source": "ChEMBL document CHEMBL6178014", "about": "“Discovery and Administration Optimization of Novel Selective CDK9 Inhibitor, 1-7a-B1, for Improved Pharmacokinetics and Antitumor Efficacy In Vivo” (J Med Chem, 2025)", "key": {"CYP2C19": {"biological_target": "CYP2C19 (Homo sapiens, UniProt P33261)", "sequence (P33261 whole entry)": "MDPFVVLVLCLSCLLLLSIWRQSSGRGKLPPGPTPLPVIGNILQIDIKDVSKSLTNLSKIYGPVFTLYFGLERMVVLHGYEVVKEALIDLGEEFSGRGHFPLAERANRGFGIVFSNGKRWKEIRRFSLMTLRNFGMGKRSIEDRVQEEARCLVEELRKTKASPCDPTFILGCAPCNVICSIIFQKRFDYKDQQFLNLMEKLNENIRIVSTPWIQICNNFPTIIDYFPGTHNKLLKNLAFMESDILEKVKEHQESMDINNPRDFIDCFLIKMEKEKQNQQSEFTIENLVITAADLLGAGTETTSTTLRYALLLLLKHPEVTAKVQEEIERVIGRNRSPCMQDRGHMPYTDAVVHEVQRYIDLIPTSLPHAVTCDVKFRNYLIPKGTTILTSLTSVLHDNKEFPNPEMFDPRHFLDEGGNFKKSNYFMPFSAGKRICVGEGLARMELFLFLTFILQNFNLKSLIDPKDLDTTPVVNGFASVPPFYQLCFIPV", "assay": "Inhibition of CYP2C19 in human liver microsome at 10 uM pre-incubated with compound for 10 mins in presence of NADPH-regenerating system by LC-MS/MS analysis relative to control", "format": "ADME", "details": "liver microsomes"}, "HCT-116 [1]": {"test_system": "HCT-116", "assay": "Induction of apoptosis in human HCT-116 cells assessed as increase in total apoptotic cells incubated for 48 hrs by Annexin V-FITC/PI staining based flow cytometry analysis", "format": "functional, cell-based", "details": "dose 100-400 nM"}, "[2]": {"assay": "Stability in human plasma assessed as half life at 100 uM measured up to 120 mins by LC-MS/MS analysis", "format": "ADME, cell-free"}, "HCT-116 [3]": {"test_system": "HCT-116", "assay": "Induction of apoptosis in human HCT-116 cells assessed as increase in PARP cleavage incubated for 48 hrs by Western blot analysis", "format": "functional, cell-based", "details": "dose 100-400 nM"}, "CDK6/cyclin D3": {"biological_target": "CDK6/cyclin D3 (Homo sapiens, UniProt Q00534)", "sequence (P30281 whole entry)": "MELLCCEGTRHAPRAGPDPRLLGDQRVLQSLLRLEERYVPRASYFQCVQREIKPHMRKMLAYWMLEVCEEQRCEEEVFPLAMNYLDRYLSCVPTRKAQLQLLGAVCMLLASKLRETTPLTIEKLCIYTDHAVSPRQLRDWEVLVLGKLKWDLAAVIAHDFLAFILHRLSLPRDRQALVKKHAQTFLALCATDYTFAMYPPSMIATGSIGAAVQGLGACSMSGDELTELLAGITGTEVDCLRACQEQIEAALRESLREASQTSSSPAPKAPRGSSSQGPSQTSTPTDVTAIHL", "sequence (Q00534 whole entry)": "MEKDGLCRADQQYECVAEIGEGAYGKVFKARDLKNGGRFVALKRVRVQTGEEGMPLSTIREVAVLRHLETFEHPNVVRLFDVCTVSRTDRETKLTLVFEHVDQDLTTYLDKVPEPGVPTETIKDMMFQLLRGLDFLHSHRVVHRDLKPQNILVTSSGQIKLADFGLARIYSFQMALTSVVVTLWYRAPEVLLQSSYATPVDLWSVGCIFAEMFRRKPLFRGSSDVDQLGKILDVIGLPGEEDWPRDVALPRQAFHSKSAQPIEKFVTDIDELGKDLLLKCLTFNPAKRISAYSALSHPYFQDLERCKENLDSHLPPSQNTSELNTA", "assay": "Inhibition of CDK6/cycD3 (unknown origin) by ADP-Glo assay", "format": "protein-complex assay"}, "HCT-116 [4]": {"test_system": "HCT-116", "assay": "Antitumor activity against human HCT-116 cells xenografted in female BALB/c nu-nu mouse assessed as reduction in Ki67 positive cells at 40 mg/kg, po by staining based analysis", "format": "functional, organism-based"}, "[5]": {"assay": "Toxicity in female BALB/c nu-nu mouse xenografted with human HCT-116 cells assessed as histopathological changes in spleen at 40 mg/kg, po administered once daily for 3 weeks by H and E staining based analysis", "format": "organism-based", "details": "in vivo, 504 h"}, "[6]": {"assay": "Toxicity in female BALB/c nu-nu mouse xenografted with human HCT-116 cells assessed as histopathological changes in heart at 40 mg/kg, po administered once daily for 3 weeks by H and E staining based analysis", "format": "organism-based", "details": "in vivo, 504 h"}, "HCT-116 [7]": {"test_system": "HCT-116", "assay": "Induction of ROS accumulation in human HCT-116 cells at 100 to 400 nM incubated for 48 hrs by […] staining based flow cytometry analysis", "format": "functional, cell-based", "details": "dose 100-400 nM"}, "HCT-116 [8]": {"test_system": "HCT-116", "assay": "Downregulation of c-Myc level in human HCT-116 cells at 200 to 400 nM incubated for 48 hrs by Western blot analysis", "format": "functional, cell-based", "details": "dose 200-400 nM"}, "[9]": {"assay": "Cmax in Sprague-Dawley rat at 30 mg/kg, po measured after 24 hrs by LC-MS/MS analysis", "format": "ADME, organism-based", "details": "in vivo"}, "[10]": {"biological_target": "Cyclin-dependent kinase 9 (Homo sapiens) (UniProt P50750)", "sequence (P50750 whole entry)": "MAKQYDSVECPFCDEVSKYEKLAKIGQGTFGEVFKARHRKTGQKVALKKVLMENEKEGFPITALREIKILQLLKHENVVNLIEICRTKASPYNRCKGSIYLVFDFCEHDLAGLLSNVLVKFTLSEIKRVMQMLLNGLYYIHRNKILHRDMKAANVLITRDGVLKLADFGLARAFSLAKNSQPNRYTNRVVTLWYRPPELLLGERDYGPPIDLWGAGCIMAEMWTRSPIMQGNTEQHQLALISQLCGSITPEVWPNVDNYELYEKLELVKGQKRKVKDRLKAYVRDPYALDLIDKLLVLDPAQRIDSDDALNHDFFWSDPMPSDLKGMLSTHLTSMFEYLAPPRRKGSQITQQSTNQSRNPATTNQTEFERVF", "assay": "Inhibition of CDK9 in human HCT-116 cells assessed as reduction in phosphorylation of RNA polymerase II at Ser2 residue at 100 to 400 nM incubated for 48 hrs by Western blot analysis", "format": "cell-based", "details": "dose 100-400 nM"}, "Mitochondrial membrane": {"test_system": "Mitochondrial membrane", "assay": "Induction of mitochondrial membrane depolarization in human HCT-116 cells at 100 to 400 nM incubated for 48 hrs by JC-1 staining based flow cytometry analysis", "format": "cell membranes", "details": "dose 100-400 nM"}, "A549": {"test_system": "A549", "assay": "Cytotoxicity against human A549 cells assessed as cell viability incubated for 48 hrs by CCK8 assay", "format": "functional, cell-based"}, "[11]": {"assay": "Cmax in Sprague-Dawley rat at 30 mg/kg, po as submicron emulsion measured after 24 hrs by LC-MS/MS analysis", "format": "ADME, organism-based", "details": "in vivo"}, "CDK2/Cyclin A2": {"biological_target": "CDK2/Cyclin A2 (Homo sapiens, UniProt P24941)", "assay": "Inhibition of CDK2/cyclA2 (unknown origin) by ADP-Glo assay", "format": "protein-complex assay"}, "HT-29": {"test_system": "HT-29", "assay": "Antiproliferative activity against human HT-29 cells assessed as inhibition of cell growth incubated for 48 hrs by CCK8 assay", "format": "functional"}, "[12]": {"assay": "Clearance in Sprague-Dawley rat at 2 mg/kg, iv measured after 24 hrs by LC-MS/MS analysis", "format": "ADME, organism-based", "details": "in vivo"}, "CDK4/Cyclin D3": {"biological_target": "CDK4/Cyclin D3 (Homo sapiens, UniProt P11802)", "sequence (P11802 whole entry)": "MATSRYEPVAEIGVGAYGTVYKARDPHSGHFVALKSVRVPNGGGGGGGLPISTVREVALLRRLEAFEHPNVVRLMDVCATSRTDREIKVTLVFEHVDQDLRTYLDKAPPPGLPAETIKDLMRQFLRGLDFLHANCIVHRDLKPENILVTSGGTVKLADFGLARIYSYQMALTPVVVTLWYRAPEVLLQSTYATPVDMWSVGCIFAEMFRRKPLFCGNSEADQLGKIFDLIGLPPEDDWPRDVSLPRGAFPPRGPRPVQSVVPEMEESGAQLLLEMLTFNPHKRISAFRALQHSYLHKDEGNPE", "sequence (P30281 whole entry, further chain)": "as the sequence (P30281 whole entry) above", "assay": "Inhibition of CDK4/cycD3 (unknown origin) by ADP-Glo assay", "format": "protein-complex assay"}, "[13]": {"assay": "Half life in Sprague-Dawley rat at 2 mg/kg, iv measured after 24 hrs by LC-MS/MS analysis", "format": "ADME, organism-based", "details": "in vivo"}, "[14]": {"assay": "Toxicity in female BALB/c nu-nu mouse xenografted with human HCT-116 cells assessed as histopathological changes in liver at 40 mg/kg, po administered once daily for 3 weeks by H and E staining based analysis", "format": "organism-based", "details": "in vivo, 504 h"}, "HCT-116 [15]": {"test_system": "HCT-116", "assay": "Antitumor activity against human HCT-116 cells xenografted in female BALB/c nu-nu mouse assessed as tumor growth inhibition at 20 mg/kg, po as submicron emulsion administered once daily for 3 weeks by vernier caliper analysis", "format": "functional, organism-based"}, "[16]": {"biological_target": "E3 ubiquitin-protein ligase Mdm2 (Homo sapiens) (UniProt Q00987)", "sequence (Q00987 whole entry, looked up)": "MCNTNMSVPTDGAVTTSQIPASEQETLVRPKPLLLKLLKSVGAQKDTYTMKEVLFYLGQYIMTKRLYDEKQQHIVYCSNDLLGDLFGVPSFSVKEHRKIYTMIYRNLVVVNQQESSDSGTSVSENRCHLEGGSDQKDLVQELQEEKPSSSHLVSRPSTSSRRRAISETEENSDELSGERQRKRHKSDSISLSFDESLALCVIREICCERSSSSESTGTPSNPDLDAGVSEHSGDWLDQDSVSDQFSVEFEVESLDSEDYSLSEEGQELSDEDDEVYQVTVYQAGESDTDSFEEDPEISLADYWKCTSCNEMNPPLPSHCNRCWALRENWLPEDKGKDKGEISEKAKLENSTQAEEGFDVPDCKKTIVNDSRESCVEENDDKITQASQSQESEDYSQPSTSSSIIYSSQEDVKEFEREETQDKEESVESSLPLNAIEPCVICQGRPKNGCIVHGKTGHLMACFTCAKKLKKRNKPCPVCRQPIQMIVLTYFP", "assay": "Inhibition of MDM2 phosphorylation at ser166 residue in human HCT-116 cells at 100 to 400 nM incubated for 48 hrs by Western blot analysis", "format": "cell-based", "details": "dose 100-400 nM"}, "CYP3A4": {"biological_target": "CYP3A4 (Homo sapiens, UniProt P08684)", "sequence (P08684 whole entry)": "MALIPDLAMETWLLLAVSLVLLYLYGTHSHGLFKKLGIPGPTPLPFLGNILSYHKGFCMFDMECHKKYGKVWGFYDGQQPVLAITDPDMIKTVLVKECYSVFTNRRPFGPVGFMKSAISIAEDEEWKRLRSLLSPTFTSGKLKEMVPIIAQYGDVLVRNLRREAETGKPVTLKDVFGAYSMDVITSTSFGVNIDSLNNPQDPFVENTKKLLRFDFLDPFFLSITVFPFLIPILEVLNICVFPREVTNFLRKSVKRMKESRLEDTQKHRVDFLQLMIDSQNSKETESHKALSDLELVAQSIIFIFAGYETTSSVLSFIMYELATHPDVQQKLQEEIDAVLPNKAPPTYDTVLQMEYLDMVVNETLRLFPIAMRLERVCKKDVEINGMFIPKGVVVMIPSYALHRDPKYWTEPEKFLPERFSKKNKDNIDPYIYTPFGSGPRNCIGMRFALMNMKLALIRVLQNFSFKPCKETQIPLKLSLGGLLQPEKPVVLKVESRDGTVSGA", "assay": "Inhibition of CYP3A4 in human liver microsome at 10 uM pre-incubated with compound for 10 mins in presence of NADPH-regenerating system by LC-MS/MS analysis relative to control", "format": "ADME", "details": "liver microsomes"}, "HCT-116 [17]": {"test_system": "HCT-116", "assay": "Downregulation of Bcl-2 mRNA level in human HCT-116 cells at 200 to 400 nM incubated for 48 hrs by qRT-PCR analysis", "format": "functional, cell-based", "details": "dose 200-400 nM"}, "HCT-116 [18]": {"test_system": "HCT-116", "assay": "Antiproliferative activity against human HCT-116 cells assessed as inhibition of cell growth incubated for 48 hrs by CCK8 assay", "format": "functional"}, "[19]": {"biological_target": "Cellular tumor antigen p53 (Homo sapiens) (UniProt P04637)", "sequence (P04637 whole entry, looked up)": "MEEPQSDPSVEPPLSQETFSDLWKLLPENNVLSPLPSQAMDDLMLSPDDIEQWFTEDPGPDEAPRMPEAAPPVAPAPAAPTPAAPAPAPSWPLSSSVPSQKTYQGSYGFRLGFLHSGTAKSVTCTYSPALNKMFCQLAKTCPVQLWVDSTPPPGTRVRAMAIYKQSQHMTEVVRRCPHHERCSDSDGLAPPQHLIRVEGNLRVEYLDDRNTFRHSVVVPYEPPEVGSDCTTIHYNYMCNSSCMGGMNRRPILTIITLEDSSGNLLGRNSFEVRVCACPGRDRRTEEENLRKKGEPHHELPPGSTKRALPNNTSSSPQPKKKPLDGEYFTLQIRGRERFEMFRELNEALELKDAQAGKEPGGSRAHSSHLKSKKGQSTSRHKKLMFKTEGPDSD", "assay": "Induction of stabilization of wild type p53 in human HCT-116 cells at 100 to 400 nM incubated for 48 hrs by Western blot analysis", "format": "cell-based", "details": "dose 100-400 nM"}, "[20]": {"assay": "Volume of distribution in Sprague-Dawley rat at 30 mg/kg, po measured after 24 hrs by LC-MS/MS analysis", "format": "ADME, organism-based", "details": "in vivo"}, "[21]": {"assay": "AUC (0 to t) in Sprague-Dawley rat at 30 mg/kg, po measured after 24 hrs by LC-MS/MS analysis", "format": "ADME, organism-based", "details": "in vivo"}, "HCT-116 [22]": {"test_system": "HCT-116", "assay": "Induction of apoptosis in human HCT-116 cells assessed as increase in caspase-3 activity at 100 to 200 nM incubated for 48 hrs by GreenNuc substrate based flow cytometry analysis", "format": "functional, cell-based", "details": "dose 100-200 nM"}, "NCI-H226": {"test_system": "NCI-H226", "assay": "Cytotoxicity against human NCI-H226 cells assessed as cell viability incubated for 48 hrs by CCK8 assay", "format": "functional, cell-based"}, "HCT-116 [23]": {"test_system": "HCT-116", "assay": "Effect on MDM2 expression in human HCT-116 cells at 100 to 400 nM incubated for 48 hrs by Western blot analysis", "format": "functional, cell-based", "details": "dose 100-400 nM"}, "NCM460": {"test_system": "NCM460", "assay": "Cytotoxicity against human NCM460 cells assessed as cell viability incubated for 48 hrs by CCK8 assay", "format": "toxicity, cell-based", "details": "ncm460, 48 h"}, "[24]": {"assay": "Toxicity in female BALB/c nu-nu mouse xenografted with human HCT-116 cells assessed as histopathological changes in spleen at 20 mg/kg, po as submicron emulsion administered once daily for 3 weeks by H and E staining based analysis", "format": "organism-based", "details": "in vivo, 504 h"}, "[25]": {"assay": "Volume of distribution in Sprague-Dawley rat at 30 mg/kg, po as submicron emulsion measured after 24 hrs by LC-MS/MS analysis", "format": "ADME, organism-based", "details": "in vivo"}, "CYP2C9": {"biological_target": "CYP2C9 (Homo sapiens, UniProt P11712)", "sequence (P11712 whole entry)": "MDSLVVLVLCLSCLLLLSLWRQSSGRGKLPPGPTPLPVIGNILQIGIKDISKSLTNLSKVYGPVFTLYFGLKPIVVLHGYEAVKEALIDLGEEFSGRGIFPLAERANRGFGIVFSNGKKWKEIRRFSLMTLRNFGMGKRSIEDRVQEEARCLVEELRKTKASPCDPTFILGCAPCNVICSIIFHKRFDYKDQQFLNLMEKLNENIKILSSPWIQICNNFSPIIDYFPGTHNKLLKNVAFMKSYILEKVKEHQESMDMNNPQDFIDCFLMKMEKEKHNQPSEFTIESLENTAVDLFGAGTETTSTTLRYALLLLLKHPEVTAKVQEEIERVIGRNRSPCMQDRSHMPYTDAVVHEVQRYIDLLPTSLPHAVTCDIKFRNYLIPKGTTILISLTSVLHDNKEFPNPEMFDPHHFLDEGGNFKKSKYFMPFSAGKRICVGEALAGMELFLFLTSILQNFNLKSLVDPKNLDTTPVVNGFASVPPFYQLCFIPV", "assay": "Inhibition of CYP2C9 in human liver microsome at 10 uM pre-incubated with compound for 10 mins in presence of NADPH-regenerating system by LC-MS/MS analysis relative to control", "format": "ADME", "details": "liver microsomes"}}, "note": "Activity calls are given as the source filed them. The rule behind the calls is not given here."}
{"smiles": "CC(C)Oc1cc(F)ccc1-c1ccnc(NC(=O)Nc2cccc(C(=O)N3CCN(C)CC3)c2)c1", "values": [{"measurement": "inhibition at 10 µM", "setting": "CYP2C19", "result": 69.6, "unit": "%"}, {"measurement": "Activity", "setting": "HCT-116 [1]", "result": "Dose-dependent-effect"}, {"measurement": "half-life at 100 µM", "setting": "[2]", "result": "> 289", "unit": "min"}, {"measurement": "Activity", "setting": "HCT-116 [3]", "result": "Dose-dependent-effect"}, {"measurement": "IC50", "setting": "CDK6/cyclin D3", "result": 7940, "unit": "nM"}, {"measurement": "Activity", "setting": "HCT-116 [4]", "result": "Active"}, {"measurement": "Activity", "setting": "[5]", "result": "Non-toxic"}, {"measurement": "Activity", "setting": "[6]", "result": "Non-toxic"}, {"measurement": "Activity", "setting": "HCT-116 [7]", "result": "Active"}, {"measurement": "Activity", "setting": "HCT-116 [8]", "result": "Active"}, {"measurement": "Cmax", "setting": "[9]", "result": 302, "unit": "ng/mL"}, {"measurement": "Activity", "setting": "[10]", "result": "Active"}, {"measurement": "Activity", "setting": "Mitochondrial membrane", "result": "Active"}, {"measurement": "Activity", "setting": "A549", "result": "Active"}, {"measurement": "Cmax", "setting": "[11]", "result": 1020, "unit": "ng/mL"}, {"measurement": "IC50", "setting": "CDK2/Cyclin A2", "result": 1180, "unit": "nM"}, {"measurement": "GI50", "setting": "HT-29", "result": 190, "unit": "nM"}, {"measurement": "clearance", "setting": "[12]", "result": 81.8, "unit": "mL/min/kg"}, {"measurement": "IC50", "setting": "CDK4/Cyclin D3", "result": 1820, "unit": "nM"}, {"measurement": "half-life", "setting": "[13]", "result": 17.6, "unit": "min"}, {"measurement": "Activity", "setting": "[14]", "result": "Non-toxic"}, {"measurement": "Activity", "setting": "HCT-116 [15]", "result": "Active"}, {"measurement": "inhibition", "setting": "[16]", "result": "Active"}, {"measurement": "inhibition at 10 µM", "setting": "CYP3A4", "result": 5.2, "unit": "%"}, {"measurement": "Activity", "setting": "HCT-116 [17]", "result": "Active"}, {"measurement": "GI50", "setting": "HCT-116 [18]", "result": 150, "unit": "nM"}, {"measurement": "Activity", "setting": "[19]", "result": "Active"}, {"measurement": "Vd", "setting": "[20]", "result": 5.54, "unit": "L/kg"}, {"measurement": "AUC(0-t) at 24 h", "setting": "[21]", "result": 897, "unit": "ng·h/mL"}, {"measurement": "Activity", "setting": "HCT-116 [22]", "result": "Active"}, {"measurement": "Activity", "setting": "NCI-H226", "result": "Active"}, {"measurement": "Activity", "setting": "HCT-116 [23]", "result": "inactive"}, {"measurement": "Activity", "setting": "NCM460", "result": "Toxic"}, {"measurement": "Activity", "setting": "[24]", "result": "Non-toxic"}, {"measurement": "Vd", "setting": "[25]", "result": 6.52, "unit": "L/kg"}, {"measurement": "inhibition at 10 µM", "setting": "CYP2C9", "result": 15.9, "unit": "%"}]}
